Data on 3 molecules can be found in US9802927B2, “Oxadiazine compounds and methods of use thereof” (Denali Therapeutics, Inc., priority 2015, dated 2017).

Molecules are shown by their SMILES.

The test system of this experiment is Aβ42. The experiment is described as follows: In vitro cell screening assay in H4 cells expressing human APP751: Aβ42 by sandwich ELISA. As to conditions: compounds 0.003-10 μM, incubated overnight (16-18 h), sandwich ELISA of supernatant. It is filed as cell-based. A digest of the protocol:
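H4 neuroglioma cells stably expressing wild-type human APP751, switched to Pro293 medium and treated with compounds (0.003-10 μM, 0.33% DMSO) for 16-18 h at 37 °C. Supernatant Aβ42 quantified by sandwich ELISA (C-terminal capture, 4G8-HRP detection, A450); EC50 by sigmoidal fit normalized to DMSO and DAPT controls.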

In the case of `COc1nc(C2=NOCC(c3cn(C4CC4)c4cc(F)ccc34)N2)ccc1-n1cnc(C)c1` (single isomer, unassigned; (-)) [Example 228A, (−)-5-(1-cyclopropyl-6-fluoro-1H-indol-3-yl)-3-(6-methoxy-5-(4-methyl-1H-imidazol-1-yl)pyridin-2-yl)-5,6-dihydro-4H-1,2,4-oxadiazine], the EC50 stood at 262 nM. In turn, `COc1nc(C2=NOCC(c3cn(C)c4cc(Cl)ccc34)N2)ccc1-n1cnc(C)c1` (single isomer, unassigned; (-)) [Example 194B, (−)-5-(6-chloro-1-methyl-1H-indol-3-yl)-3-(6-methoxy-5-(4-methyl-1H-imidazol-1-yl)pyridin-2-yl)-5,6-dihydro-4H-1,2,4-oxadiazine] yielded an EC50 of 147 nM. As for `COc1nc(C2=NOCC(c3cc4cccc(C)c4o3)N2)ccc1-n1cnc(C)c1` (single isomer, unassigned) [Example 7A, 3-(6-Methoxy-5-(4-methyl-1H-imidazol-1-yl)pyridin-2-yl)-5-(7-methylbenzofuran-2-yl)-5,6-dihydro-4H-1,2,4-oxadiazine], the EC50 is more than 3000 nM.
